Tests used:
α-glycosidase = α-glycosidase inhibitory activity (PNPG method); format: biochemical; conditions: yeast enzyme EC 3.2.1.20
Procedure: Optical rotations were measured on a MCP 5100 modular compact polarimeter (Anton Paar, America). IR spectra were taken on a Nicolet 380 FT-IR instrument (Thermo, USA) as KBr discs. NMR spectra were recorded on a Bruker Avance III 500 MHz NMR spectrometer (Bruker, German). ESIMS and HRESIMS were recorded with amaZon SL (Bruker) or Compact QqTOF (Bruker). ECD spectra were measured by APL Chiascan (Applied Photophysics Ltd., England). Semi-preparative HPLC was carried out using a C18 column (Cosmosil-pack, 10 × 250 mm, 5 μm, 4 mL/min, Nacalai Tesque). C18 gel (20–45 μm, Fuji SilysiSa Chemical Co., Ltd., Greenville, NC, UA), Silica gel (60–80, 200–300 mesh, Qingdao Marine Chemical Co., Ltd., Qingdao, China), Sephadex LH-20 (Merck, Kenilworth, NJ, USA) were used for column chromatograghy. α-glycosidase (Sigma-Aldrich, UA) used for the bioactivity was derived from yeast and its EINECS (EC) unmber is 3.2.1.20.
The method optimized by Jong et al. ([2007]) was performed in vitro to test the α-glucosidase inhibitory activity of compounds 1–8. Acarbose was used as positive control.
(§1) Compounds 1–8 were tested for inhibitory activity against α-glycosidase using the PNPG method and for cytotoxic effects on SGC-7901, K562, A549, BEL-7402, and Hela cell lines using the MTT method (See Supplementary Table 1 in the Supplementary Material).

A549 cell line = assay: MTT cytotoxicity assay, A549; format: cell-based; conditions: MTT method, A549 cells
Procedure: (§2) The MTT method optimized by Mosmann ([1983]) was performed in vitro to test the cytotoxic activity of compounds 1–8. Cisplatin was used as a positive control.
as §1

K562 cell line = assay: MTT cytotoxicity assay, K562; format: cell-based; conditions: MTT method, K562 cells
Procedure: as §2, §1

Hela cell line = assay: MTT cytotoxicity assay, Hela; format: cell-based; conditions: MTT method, Hela cells
Procedure: as §2, §1

SGC-7901 cell line = assay: MTT cytotoxicity assay, SGC-7901; format: cell-based; conditions: MTT method, SGC-7901 cells
Procedure: as §2, §1

BEL-7402 cell line = assay: MTT cytotoxicity assay, BEL-7402; format: cell-based; conditions: MTT method, BEL-7402 cells
Procedure: as §2, §1

[1] = test system: activated murine macrophage-like cell line RAW 264.7; design: method as in Zhang et al., 2007b; conditions: activated RAW 264.7 cells; ref Zhang et al., 2007b; cited from earlier work

Structure (SMILES)	IC50 (α-glycosidase) [µM]	IC50 (A549 cell line) [µM]	IC50 (K562 cell line) [µM]	IC50 (Hela cell line) [µM]	IC50 (SGC-7901 cell line) [µM]	IC50 (BEL-7402 cell line) [µM]	melting point [°C]	IC50 (A549 cell line; Homo sapiens) [µM]	IC50 (K562 cell line; Homo sapiens) [µM]	IC50 (Hela cell line; Homo sapiens) [µM]	IC50 (SGC-7901 cell line; Homo sapiens) [µM]	IC50 (BEL-7402 cell line; Homo sapiens) [µM]	inhibitory effects on NO production [1]
C[C@H]1O[C@H](O[C@H]2[C@H](O)[C@@H](O)[C@@H](O[C@H]3[C@H](O)[C@@H](O)C(O)O[C@@H]3CO)O[C@@H]2CO)[C@H](O)[C@@H](O)[C@@H]1N[C@H]1C=C(CO)[C@@H](O)[C@H](O)[C@H]1O (stereo partly shown) [Acarbose, reference compound]	720	–	–	–	–	–	–	–	–	–	–	–	–
N.N.[Cl][Pt][Cl] [Cisplatin, reference compound]	–	1.93	3.08	11.3	4.11	4.02	–	–	–	–	–	–	–
CC(C)C1C2OC(=O)C1C1CC=CC1(C)C2NC=O (stereo not shown) [Compound 1, Dendroterpene A]	> 1000	–	–	–	–	–	185 to 186	> 50	> 50	> 50	> 50	> 50	–
CC(C)C1C2OC(=O)C1C1(O)CC=CC1(C)C2NC=O (stereo not shown) [Compound 2, Dendroterpene B]	> 1000	–	–	–	–	–	200 to 201	> 50	> 50	> 50	> 50	> 50	–
CC(C)C1C2OC(=O)C1C1CCC3C(=O)OC2C31C (stereo not shown) [Compound 3, Dendroterpene C]	970	–	–	–	–	–	–	> 50	> 50	> 50	> 50	> 50	–
CC(C)C1C2OC(=O)C1C1CCC3(O)C(=O)OC2C13C (stereo not shown) [Compound 4, Dendroterpene D]	> 1000	–	–	–	–	–	167 to 168	> 50	> 50	> 50	> 50	> 50	–
COc1cccc(CCc2cc(OC)c(O)c3c2C(Cc2cccc(OC)c2)c2cc(O)c(O)c(OC)c2O3)c1 (stereo not shown) [Compound 5, nobilin E]	30	–	–	–	–	–	–	29	10.4	22.2	17.3	20.1	exhibited inhibitory effects on NO production
COc1cccc(CC2C3=C(Oc4c2cc(O)c(O)c4OC)C(=O)c2cc(O)c4cc(O)ccc4c2C3=O)c1 (stereo not shown) [Compound 6, dendrocandin V]	680	–	–	–	–	–	–	> 50	28.2	> 50	> 50	> 50	–
CC(=O)/C=C/[C@@]1(O)C(C)=CC(=O)CC1(C)C [Compound 7, S(+)-dehydrovomifoliol]	> 1000	–	–	–	–	–	–	> 50	> 50	> 50	> 50	> 50	–
Oc1ccc(CCOCCc2ccc(O)cc2)cc1 [Compound 8, di-[2-(4-hydroxyphenyl)] ethyl ether]	300	–	–	–	–	–	–	> 50	> 50	> 50	> 50	> 50	–

Reference: publication PMC6895213, “Four New Picrotoxane-Type Sesquiterpenes From Dendrobium nobile Lindl” (Frontiers in Chemistry, 2019)
